# Experimental data as given in patent US20260285876A1, “MACROCYCLIC COMPOUNDS AS USP1 INHIBITORS” (GUANGDONG NEWOPP BIOPHARMACEUTICALS CO., LTD., priority 2023, published 2026).
# Target: T1, USP1/UAF1 (Homo sapiens, UniProt O94782)
# T1 construct: purchased R&D Systems
# Assay: Deubiquitination assay for USP1/UAF1 (ubiquitin-rhodamine 110 substrate)
# Assay type: biochemical
# Details: 0.5 nM USP1/UAF1, 150 nM ubiquitin-rhodamine, 50% inhibition compared to DMSO control
# Procedure: Deubiquitination assay for USP1/UAF1: compounds described here were tested for their ability to inhibit USP1 deubiquitinase activity in this assay using ubiquitin-rhodamine 110 as the substrate. The assay was conducted in the assay buffer (50 mM Tris-HCl, pH 7.8, 0.5 mM EDTA, 0.1 mg/ml Bovine Serum Albumin, 1 mM DTT, 0.01% Tween-20) in 384 well plates. 0.5 nM USP1/UAF1 (R&D Systems) was incubated with compounds in dose response format for 10 minutes at room temperature. Then the reaction was initiated by addition of 150 nM ubiquitin-rhodamine (R&D Systems). The fluorescence intensity was read after 45 minutes at Ex488/Em535 by CLARIOstar (BMG Labtech). IC50 response curves were plotted.
# T1 sequence (O94782 whole entry): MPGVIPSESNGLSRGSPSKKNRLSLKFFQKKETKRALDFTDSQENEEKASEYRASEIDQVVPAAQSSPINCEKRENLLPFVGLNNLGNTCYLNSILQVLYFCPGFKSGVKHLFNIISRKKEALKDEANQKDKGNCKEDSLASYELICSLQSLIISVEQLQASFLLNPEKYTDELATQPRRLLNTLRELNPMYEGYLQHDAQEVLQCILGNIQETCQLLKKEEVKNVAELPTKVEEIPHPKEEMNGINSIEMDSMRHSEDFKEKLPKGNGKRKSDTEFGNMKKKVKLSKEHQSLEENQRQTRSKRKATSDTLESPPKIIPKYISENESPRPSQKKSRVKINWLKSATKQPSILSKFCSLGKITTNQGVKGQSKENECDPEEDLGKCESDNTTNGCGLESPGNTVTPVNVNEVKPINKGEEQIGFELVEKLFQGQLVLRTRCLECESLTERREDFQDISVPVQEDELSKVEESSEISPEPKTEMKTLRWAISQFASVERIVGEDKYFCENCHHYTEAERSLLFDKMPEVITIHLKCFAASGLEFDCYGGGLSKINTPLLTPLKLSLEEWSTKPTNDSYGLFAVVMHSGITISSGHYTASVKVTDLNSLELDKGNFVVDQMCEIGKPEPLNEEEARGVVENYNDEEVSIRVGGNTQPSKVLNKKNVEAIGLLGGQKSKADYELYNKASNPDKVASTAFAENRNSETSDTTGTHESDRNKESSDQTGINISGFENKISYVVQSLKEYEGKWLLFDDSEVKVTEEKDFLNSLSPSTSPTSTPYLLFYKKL
# T1 sequence (Q8TAF3 whole entry partner): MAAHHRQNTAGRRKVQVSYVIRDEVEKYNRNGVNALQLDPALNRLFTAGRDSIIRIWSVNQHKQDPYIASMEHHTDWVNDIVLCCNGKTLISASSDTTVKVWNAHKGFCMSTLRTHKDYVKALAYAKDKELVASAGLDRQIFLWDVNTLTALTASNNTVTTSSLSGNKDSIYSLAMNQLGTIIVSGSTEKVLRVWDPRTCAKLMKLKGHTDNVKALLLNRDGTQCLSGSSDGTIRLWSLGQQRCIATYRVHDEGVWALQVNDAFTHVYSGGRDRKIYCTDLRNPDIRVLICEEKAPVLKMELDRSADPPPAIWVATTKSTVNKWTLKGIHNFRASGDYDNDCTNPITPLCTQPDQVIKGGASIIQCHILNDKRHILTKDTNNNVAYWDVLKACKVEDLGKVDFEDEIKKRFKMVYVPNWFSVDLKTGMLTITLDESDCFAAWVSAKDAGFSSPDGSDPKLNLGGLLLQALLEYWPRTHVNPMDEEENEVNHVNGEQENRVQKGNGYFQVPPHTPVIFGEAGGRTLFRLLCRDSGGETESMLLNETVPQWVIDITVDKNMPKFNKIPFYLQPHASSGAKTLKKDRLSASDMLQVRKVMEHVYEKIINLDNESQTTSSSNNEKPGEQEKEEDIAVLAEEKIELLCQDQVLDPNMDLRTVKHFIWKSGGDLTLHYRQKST
row,IC50 [nM],Compound
1,≤ 100,"CC(C)n1cc(C(F)(F)F)nc1-c1ccc2c(c1)OCCCOc1ncnc(C3CC3)c1-c1ncc3ccc(=O)n(c3n1)C2 [Example 17, 1^6-cyclopropyl-4^4-(1-isopropyl-4-(trifluoromethyl)-1H-imidazol-2-yl)-2^7,2^8-dihydro-5,9-dioxa-2(2,8)-pyrido[2,3-d]pyrimidina-1(5,4)-pyrimidina-4(1,2)-benzenacyclononaphan-2^7-one]"
2,≤ 100,"FC(F)(F)c1cn(C2CC2)c(-c2ccc3c(c2)/C=C/CCOc2ncnc(C4CC4)c2-c2ncc4ccc(n4n2)C3)n1 [Example 51, (2^1Z,5E)-1^6-cyclopropyl-4^4-(1-cyclopropyl-4-(trifluoromethyl)-1H-imidazol-2-yl)-8-oxa-2(2,7)-pyrrolo[2,1-f][1,2,4]triazina-1(5,4)-pyrimidina-4(1,2)-benzenacyclooctaphan-5-ene]"
3,≥ 1000,"CC(C)n1cc(C(F)(F)F)nc1-c1ccc2c(c1)CCOc1ncnc(C3CC3)c1-c1ncc3cnn(c3n1)C2 [Example 4, 1^6-cyclopropyl-4^4-(1-isopropyl-4-(trifluoromethyl)-1H-imidazol-2-yl)-2^1H-7-oxa-2(6,1)-pyrazolo[3,4-d]pyrimidina-1(5,4)-pyrimidina-4(1,2)-benzenacycloheptaphane]"
4,≤ 100,"CC(C)n1cc(C(F)(F)F)nc1-c1ccc2c(c1)OCCOc1ncnc(C3CC3)c1-c1ncc3ccc(=O)n(c3n1)C2 [Example 16, 1^6-cyclopropyl-4^4-(1-isopropyl-4-(trifluoromethyl)-1H-imidazol-2-yl)-2^7,2^8-dihydro-5,8-dioxa-2(2,8)-pyrido[2,3-d]pyrimidina-1(5,4)-pyrimidina-4(1,2)-benzenacyclooctaphan-2^7-one]"
5,≤ 100,"CC(C)n1cc(C(F)(F)F)nc1-c1ccc2cc1OCCCOc1ncnc(C3CC3)c1-c1ncc3cnn(c3n1)C2 [Example 38, 1^6-cyclopropyl-4^4-(1-isopropyl-4-(trifluoromethyl)-1H-imidazol-2-yl)-2^1H-5,9-dioxa-2(6,1)-pyrazolo[3,4-d]pyrimidina-1(5,4)-pyrimidina-4(1,3)-benzenacyclononaphane]"
6,≤ 100,"CC(C)n1cc(C(F)(F)F)nc1-c1ccc2c(c1)/C=C/COc1ncnc(C3CC3)c1-c1ncc3cnn(c3n1)C2 [Example 30, (E)-1^6-cyclopropyl-4^4-(1-isopropyl-4-(trifluoromethyl)-1H-imidazol-2-yl)-2^1H-8-oxa-2(6,1)-pyrazolo[3,4-d]pyrimidina-1(5,4)-pyrimidina-4(1,2)-benzenacyclooctaphan-5-ene]"
7,≤ 100,"FC(F)(F)c1cn(C2CC2)c(-c2ccc3c(c2)NCCCOc2ncnc(C4CC4)c2-c2ncc4ccc(n4n2)C3)n1 [Example 41, (Z)-1^6-cyclopropyl-4^4-(1-cyclopropyl-4-(trifluoromethyl)-1H-imidazol-2-yl)-9-oxa-5-aza-2(2,7)-pyrrolo[2,1-f][1,2,4]triazina-1(5,4)-pyrimidina-4(1,2)-benzenacyclononaphane]"
8,≤ 100,"CC(C)n1cc(C(F)(F)F)nc1-c1ccc2c(c1)SCCOc1ncnc(C3CC3)c1-c1ncc3cnn(c3n1)C2 [Example 27, 1^6-cyclopropyl-4^4-(1-isopropyl-4-(trifluoromethyl)-1H-imidazol-2-yl)-2^1H-8-oxa-5-thia-2(6,1)-pyrazolo[3,4-d]pyrimidina-1(5,4)-pyrimidina-4(1,2)-benzenacyclooctaphane]"
9,≤ 100,"CC(C)n1cc(C(F)(F)F)nc1-c1ccc2c(c1)NCCCOc1ncnc(C3CC3)c1-c1ncc3cnn(c3n1)C2 [Example 8, 1^6-cyclopropyl-4^4-(1-isopropyl-4-(trifluoromethyl)-1H-imidazol-2-yl)-2^1H-9-oxa-5-aza-2(6,1)-pyrazolo[3,4-d]pyrimidina-1(5,4)-pyrimidina-4(1,2)-benzenacyclononaphane]"
